Measured values published in patent US6448024B1, “Method, reagent, cartridge, and device for determining fibrinogen” (Roche Diagnostics Corporation, priority 2000, dated 2002).
Several values for one entry are separate records, joined by “and”; a condition that tells them apart may be missing. Equal values may be shown once. Read-outs that look alike come from different tables or passages of the source.

Tests used:
thrombin [1] = experiment: One or both of the two assays (wet and cartridge), summary of effective thrombin inhibitors; type: biochemical; details: wet and/or cartridge assay; result in words
thrombin [2] = target: T1, thrombin (Bos taurus, UniProt P00735)
Procedure: Additional cartridges were prepared in which specific inhibitors were combined with the thrombin solution, the thrombin inhibitor/thrombin solution deposited in the cartridge, and dried. […] The TDS reagent (3 microliters) was applied to cartridges and dried. Fibrinogen test samples for these cartridges comprised 40 μL of the fibrinogen working solution combined with 7 μL of the plastic sphere solution.

thrombin [3] = target: T1, thrombin; experiment: Cartridge assay (CoaguChek Plus), dried thrombin reagent in cartridge, inhibitor added to sample; type: biochemical, bovine; design: adding thrombin (Calbiochem 605157 bovine) to the HEPES Base solution; purchased Calbiochem 605157; details: for Concentration in reagent found to be effective: clotting time above 10 s and below 300 s for fibrinogen 50 to 400 mg/dL, under 10 s without inhibitor
Procedure: An assay cartridge as described above was constructed in which the reagent chamber was coated with a dried reagent containing thrombin in a HEPES buffer matrix. Liquid samples containing latex beads as blood cell surrogates and various levels of fibrinogen were introduced into the cartridge contained within a CoaguChek™ Plus device. Just prior to introducing a sample into the device, the particular thrombin modulator being tested was added to the sample. A variety of thrombin modulators were tested in this manner.
A HEPES Base solution, pH=7.4, was formed from the following ingredients:
A thrombin solution was formed by adding thrombin (Calbiochem 605157 bovine) to the HEPES Base solution, the resulting concentration being 67 units/mL thrombin.
A 10% solution by weight of polystyrene spheres with a mean diameter of 3.27 μm (Bang Laboratories P0032700) was utilized as a blood cell surrogate for plasma or synthetic blood solutions “plastic sphere solution”).
Test cartridges were prepared by applying 3 microliters of the thrombin solution thereto and drying the solution. For each sample, a fresh “thrombin” cartridge was utilized.
Cartridges containing the dried thrombin reagent were utilized for the following experiments. Standard solutions were prepared in accordance with Example 3, except the thrombin inhibitor concentration was fixed, and the fibrinogen concentrations varied.

thrombin [4] = experiment: Wet screening assay for thrombin inhibitors with BBL Fibrometer (clotting time of fibrinogen solutions); type: biochemical, human plasma or bovine; details: for Clotting Time (average), n = 2: 15 mg/mL benzamidine (final concentration); for Found useful/effective as thrombin inhibitor in fibrometer wet assay: result in words; for Clot Time: 200 μL 0.5 mg/mL D.S. working solution, 50 μL 100 U/mL thrombin
Procedure: Materials and Methods: A phosphate buffered saline (PBS)-albumin solution was formed as follows:
2) 100 U/mL thrombin working solution; thrombin was obtained from Calbiochem (605206—human plasma, or 605157—bovine); and
3) fibrinogen working solutions having fibrinogen concentrations ranging from between 6 and 24 mg/mL fibrinogen; fibrinogen was obtained from Calbiochem (341578).
Screening Assay Procedure Using Fibrometer: A BBL Fibrometer was utilized to determine clotting times of test solutions. Test solutions were formed by adding the following components in the following order:
1. 200 μL D.S. working solution,
2. 50 μL thrombin working solution,
3. 50 μL fibrinogen working solution.
Immediately upon addition of the third component (i.e., the fibrinogen working solution), the fibrometer was activated, resulting in the probe being released into the vessel containing the reaction solution. The probe was agitated until sufficient resistance to motion was reached corresponding to a predetermined degree of clotting. A display indicated time from activation of the probe until the predetermined degree of clotting was reached.
Using the method of Example 1, 15 mg/mL benzamidine (Sigma B6506) in the PBS-albumin solution (final concentration) was contacted with samples containing varying amounts of fibrinogen.

O=C(NCCCNC(=O)[C@H](OS(=O)(=O)O)[C@@H](OS(=O)(=O)O)[C@H](O[C@@H]1O[C@H](COS(=O)(=O)O)[C@H](OS(=O)(=O)O)[C@H](OS(=O)(=O)O)[C@H]1OS(=O)(=O)O)[C@@H](COS(=O)(=O)O)OS(=O)(=O)O)[C@H](OS(=O)(=O)O)[C@@H](OS(=O)(=O)O)[C@H](O[C@@H]1O[C@H](COS(=O)(=O)O)[C@H](OS(=O)(=O)O)[C@H](OS(=O)(=O)O)[C@H]1OS(=O)(=O)O)[C@@H](COS(=O)(=O)O)OS(=O)(=O)O [Aprosulate, aprosulate]
Thrombin inhibitor found to be effective (thrombin [1]): effective | Average Clotting Time After Application To Inlet Port Of Cartridge (n = 2) (thrombin [2]; TA reagent dried in cartridge (67 units/mL thrombin, 20 10 g/dL aprosulate as printed), fibrinogen 25.5 mg/mL (so in the source)): 275 s | Average Clotting Time After Application To Inlet Port Of Cartridge (n = 2) (thrombin [2]; TA reagent dried in cartridge, fibrinogen 102 mg/mL (so in the source)): 134 s | Average Clotting Time After Application To Inlet Port Of Cartridge (n = 2) (thrombin [2]; TA reagent dried in cartridge, fibrinogen 204 mg/mL (so in the source)): 41 s | Average Clotting Time After Application To Inlet Port Of Cartridge (n = 2) (thrombin [2]; TA reagent dried in cartridge, fibrinogen 408 mg/mL (so in the source)): 24 s | Clotting Time After Application To Inlet Port Of Cartridge Containing Thrombin Reagent (thrombin [3]; 43 mg/mL aprosulate, fibrinogen 76 mg/mL (so in the source)): 149.1 s | Clotting Time After Application To Inlet Port Of Cartridge Containing Thrombin Reagent (thrombin [3]; 43 mg/mL aprosulate, fibrinogen 153 mg/mL (so in the source)): 85.5 s | Clotting Time After Application To Inlet Port Of Cartridge Containing Thrombin Reagent (thrombin [3]; 43 mg/mL aprosulate, fibrinogen 306 mg/mL (so in the source)): 21.4 s

Cn1c(=O)c2c(ncn2C)n(C)c1=O [Caffeine, caffeine]
Thrombin inhibitor found to be effective (thrombin [1]): effective | Clotting Time After Application To Inlet Port Of Cartridge Containing Thrombin Reagent (thrombin [3]; […] caffeine, fibrinogen 100 mg/mL (so in the source)): 88.8 s | Clotting Time After Application To Inlet Port Of Cartridge Containing Thrombin Reagent (thrombin [3]; […] caffeine, fibrinogen 200 mg/mL (so in the source)): 30.0 s | Clotting Time After Application To Inlet Port Of Cartridge Containing Thrombin Reagent (thrombin [3]; […] caffeine, fibrinogen 400 mg/mL (so in the source)): 24.8 s

N=C(N)c1ccccc1 [benzamidine]
Clotting Time (average), n = 2 (thrombin [4]; sample fibrinogen 100 mg/dL): 242 s | Clotting Time (average), n = 2 (thrombin [4]; sample fibrinogen 200 mg/dL): 139 s | Clotting Time (average), n = 2 (thrombin [4]; sample fibrinogen 400 mg/dL): 93 s | Thrombin inhibitor found to be effective (thrombin [1]): effective

Gly-Gly-Arg
Thrombin inhibitor found to be effective (thrombin [1]): effective | Concentration in reagent found to be effective (thrombin [3]): 0.85 mg/mL and 1.3 mg/mL

Gly-Pro-Ala
Thrombin inhibitor found to be effective (thrombin [1]): effective

Gly-Pro-Arg
Clotting Time After Application To Inlet Port Of Cartridge Containing Thrombin Reagent (thrombin [3]; […] Gly-Pro-Arg peptide, fibrinogen 100 mg/mL (so in the source)): 239.6 s | Clotting Time After Application To Inlet Port Of Cartridge Containing Thrombin Reagent (thrombin [3]; […] Gly-Pro-Arg peptide, fibrinogen 102 mg/mL (so in the source)): 44.1 s | Clotting Time After Application To Inlet Port Of Cartridge Containing Thrombin Reagent (thrombin [3]; […] Gly-Pro-Arg peptide, fibrinogen 204 mg/mL (so in the source)): 9.9 s

Polyanetholesulfate
Thrombin inhibitor found to be effective (thrombin [1]): effective

Polyvinylsulfate
Thrombin inhibitor found to be effective (thrombin [1]): effective

dextran sulfate
Found useful/effective as thrombin inhibitor in fibrometer wet assay (thrombin [4]; listed as dextran sulfate (50,000 Da—Dextralip 50)): effective

dextran sulfate [Dextran Sulfate-5,000 Da]
Concentration in reagent found to be effective (thrombin [3]): 5 mg/mL

dextran sulfate [dextran sulfate (5,000-50,000 MW)]
Thrombin inhibitor found to be effective (thrombin [1]): effective

dextran sulfate [dextran sulfate (10,000 Da)]
Clot Time (thrombin [4]; final assay fibrinogen 100 mg/dL, about 0.6 s without dextran sulfate): 22.8 s | Clot Time (thrombin [4]; final assay fibrinogen 200 mg/dL): 11.8 s | Clot Time (thrombin [4]; final assay fibrinogen 250 mg/dL): 9.8 s | Clot Time (thrombin [4]; final assay fibrinogen 400 mg/dL): 1.2 s | Found useful/effective as thrombin inhibitor in fibrometer wet assay (thrombin [4]): useful thrombin inhibitor reagent | Clotting Time After Application To Inlet Port Of Cartridge (thrombin [2]; TDS reagent dried in cartridge (67 units/mL thrombin, 57 mg/mL dextran sulfate 10,000 Da), fibrinogen 198 mg/mL (so in the source)): 40.0 s | Clotting Time After Application To Inlet Port Of Cartridge (thrombin [2]; TDS reagent dried in cartridge (67 units/mL thrombin, 57 mg/mL dextran sulfate 10,000 Da), fibrinogen 396 mg/mL (so in the source)): 26.7 s | Clotting Time After Application To Inlet Port Of Cartridge (thrombin [2]; TDS reagent dried in cartridge (67 units/mL thrombin, 57 mg/mL dextran sulfate 10,000 Da, 3 microliters), fibrinogen 99 mg/mL (so in the source)): 69.6 s | Clotting Time After Application To Inlet Port Of Cartridge Containing Thrombin Reagent (thrombin [3]; 21 mg/mL dextran sulfate (10,000 Da), fibrinogen 100 mg/mL (so in the source) in combined assay solution): 157.5 s | Clotting Time After Application To Inlet Port Of Cartridge Containing Thrombin Reagent (thrombin [3]; 21 mg/mL dextran sulfate (10,000 Da), fibrinogen 102 mg/mL (so in the source)): 81.9 s | Clotting Time After Application To Inlet Port Of Cartridge Containing Thrombin Reagent (thrombin [3]; 21 mg/mL dextran sulfate (10,000 Da), fibrinogen 204 mg/mL (so in the source)): 28.6 s
